Source: publication PMC6777825, “Differential scanning fluorimetric analysis of the amino-acid binding to taste receptor using a model receptor protein, the ligand-binding domain of fish T1r2a/T1r3” (PLoS ONE, 2019)
Read-outs that look alike come from different tables or passages of the source.

How the values were obtained:
[1] = molecular target: T1, T1r2a/T1r3 full-length receptor (Oryzias latipes, UniProt A0A173M094+A0A173M0G2); design: method as in PMID 28534491; conditions: ref [11]; cited from earlier work
medaka T1r2a/T1r3LBD = medaka T1r2a/T1r3LBD (Oryzias latipes, UniProt A0A173M094+A0A173M0G2); assay: Differential scanning fluorimetry (DSF) thermal shift ligand-binding assay; design: species or system O. latipes; conditions: for ΔTm: average ± s.e.m., n = 4; for effect on thermal stability / Tm shift of T1r2a/T1r3LBD (in words): DSF, 0.1-10 mM amino acid
Method: The protein sample was prepared as described previously. Briefly, Drosophila S2 cells (Invitrogen) stably expressing C-terminal FLAG-tagged T1r2aLBD and T1r3LBD [11, 21] were cultured in ExpressFiveSFM (LifeTechnologies) for five days at 27 °C. The T1r2a/T1r3-LBD protein was purified from the culture medium by the use of ANTI-FLAG M2 Affinity Gel (SIGMA). The purified protein was dialyzed against the assay buffer (20 mM Tris-HCl, 300 mM NaCl, 2 mM CaCl2, pH 8.0).
The protein sample (~1 μg) was mixed with Protein Thermal Shift Dye (Applied Biosystems) and 10~10,000 μM concentration of each amino acid in 20 μL of assay buffer and loaded to a MicroAmpR Fast Optical 48-Well Reaction Plate (Applied Biosystems). Specifically, to minimize the changes of the chemical and optical condition, the amino acid solutions were prepared by the exact same buffer used for the final dialysis of the protein, followed by the re-adjustment of the pH to ~ 8.0 by addition of either NaOH or HCl, and mixed with the protein diluted with the same buffer.
Fluorescent intensity was measured by the StepOne Real-Time PCR System (Applied Biosystems). The temperature was raised from 25 °C to 99 °C with a velocity of 0.022 °C/sec. The reporter and quencher for detection were set as “ROX” and “none”, respectively. Apparent melting transition temperature (Tm) was determined by the use of the maximum of the derivatives of the melt curve (dFluorescence/dT) by Protein Thermal Shift Software version 1.3 (Applied Biosystems).
The apparent dissociation constant (Kd-app) derived from the DSF results was estimated based on Eq 1 proposed by Schellman, assuming that the unfolding of the protein is reversible: ΔTm=Tm−T0=TmT0R/ΔH^0ln(1+[L]/Kd-app) (1) where [L] is the ligand concentration; Tm and T0 are the apparent melting transition temperatures in the presence and absence of the ligand; R is the gas constant; ΔH^0 is the enthalpy of unfolding at T0, assuming that there are no significant variations under the tested conditions. If the melt curves show biphasic profiles, the second (or the right side) Tm values were adopted for calculation, as described in the Results section.
For multiple regression analyses shown in Fig 2B, the apparent Tm values determined at different ligand concentrations were fitted to Eq 1 by using KaleidaGraph (Synergy Software), assuming that the change of the dissociation constant accompanied by the Tm shift is negligible.

[2] = molecular target: T1, T1r2a/T1r3 full-length receptor; assay: Ca2+-flux receptor response assay in Flip-In 293 cells stably expressing full-length T1r2a, T1r3 and Gα16-gust44; assay type: cell-based, O. latipes; conditions: for ΔRFU: average ± s.e.m.
Method: The Ca^2+-flux assay was performed using Flip-In 293 cell line (Life Technologies) stably expressing full-length T1r2a, T1r3, and Gα16-gust44 as described previously. The response stimulated by either 5 or 10 mM amino acid was represented asΔRFU (delta relative fluorescence unit) defined as the maximum fluorescence intensity induced by the addition of the amino acid, subtracted with that of an assay buffer in the absence of amino acid.

T1r2a/T1r3LBD = test system: T1r2a/T1r3LBD; design: method as in Nuemket, Yasui, et al. [11]; conditions: ref Nuemket, Yasui, et al. [11]; read-out: FRET EC50; cited from earlier work
[3] = cited from earlier work; for Hydropathy Index: hydrophobicity/hydrophilicity, ref Kyte & Doolittle, J. Mol. Biol., 157, 105 (1982); for pI: ref Handbook of Chemistry and Physics, CRC Press; for logKd_CW (polarity): transfer from cyclohexane to an aqueous solution, ref Radzicka & Wolfenden, Biochemistry, 27, 1664 (1988); for Es'c (steric effects) / πα (hydrophobicity) / HP (hydration potential): α-substituent group; for Es'c (steric effects) / πα (hydrophobicity): ref Akamatsu et al., J. Pharm. Sci., 83, 1026 (1994); for HP (hydration potential): ref Wolfenden et al., Biochemistry, 20, 849 (1981)
[4] = Tm at 8 or 9 ligand concentrations fitted to Eq 1 (Schellman), fitted parameter ± s.e., read-out: DSF Kd-app
[5] = from ΔTm at 10 mM via Eq 1, T0 326.1 K, ΔH0 72.1 kcal mol-1, read-out: Kd-app estimated at a single ligand concentration
[6] = log 1/Kd-app, converted from S1 Table values (10 mM; L-Ala 1 mM, L-Gln 0.1 mM)
[7] = 5 mM amino acid, n = 6 (n = 12 for L-glutamine)
[8] = estimated from ΔRFU at 5 mM by Hill equation, ΔRFUmax 104.3, read-out: EC50-est
[9] = estimated from ΔRFU at 10 mM by Hill equation, ΔRFUmax 104.3, read-out: EC50-est
[10] = from response at 5 mM, log 1/EC50-est
[11] = from response at 10 mM, log 1/EC50-est
[12] = read-out: Kd-app estimated at a single ligand concentration, from ΔTm at 0.1 mM via Eq 1, T0 326.1 K, ΔH0 72.1 kcal mol-1
[13] = read-out: Kd-app estimated at a single ligand concentration, from ΔTm at 1 mM via Eq 1, T0 326.1 K, ΔH0 72.1 kcal mol-1
[14] = read-out: Kd-app estimated at a single ligand concentration, from ΔTm at 10 mM via Eq 1, T0 326.1 K, ΔH0 72.1 kcal mol-1
[15] = from response at 10 mM, log 1/EC50-est, read-out: pEC50-est (converted)
[16] = from ΔTm at 0.1 mM via Eq 1, T0 326.1 K, ΔH0 72.1 kcal mol-1, read-out: Kd-app estimated at a single ligand concentration
[17] = from ΔTm at 1 mM via Eq 1, T0 326.1 K, ΔH0 72.1 kcal mol-1, read-out: Kd-app estimated at a single ligand concentration

Sequence of medaka T1r2a/T1r3LBD (A0A173M094 entry or part of it): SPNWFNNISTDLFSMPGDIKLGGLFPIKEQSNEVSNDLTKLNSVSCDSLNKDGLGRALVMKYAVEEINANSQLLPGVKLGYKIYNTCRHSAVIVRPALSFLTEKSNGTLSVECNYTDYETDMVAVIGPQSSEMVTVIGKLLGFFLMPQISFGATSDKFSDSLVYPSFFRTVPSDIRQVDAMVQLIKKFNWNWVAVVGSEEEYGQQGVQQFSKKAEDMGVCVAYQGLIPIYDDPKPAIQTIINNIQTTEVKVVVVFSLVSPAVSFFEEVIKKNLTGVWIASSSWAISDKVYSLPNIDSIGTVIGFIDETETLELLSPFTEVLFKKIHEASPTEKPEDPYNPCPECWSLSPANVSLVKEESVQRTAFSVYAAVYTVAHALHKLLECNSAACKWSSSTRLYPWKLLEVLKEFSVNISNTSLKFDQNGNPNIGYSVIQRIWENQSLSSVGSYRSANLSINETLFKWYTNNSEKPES
Sequence of medaka T1r2a/T1r3LBD (A0A173M0G2 entry or part of it): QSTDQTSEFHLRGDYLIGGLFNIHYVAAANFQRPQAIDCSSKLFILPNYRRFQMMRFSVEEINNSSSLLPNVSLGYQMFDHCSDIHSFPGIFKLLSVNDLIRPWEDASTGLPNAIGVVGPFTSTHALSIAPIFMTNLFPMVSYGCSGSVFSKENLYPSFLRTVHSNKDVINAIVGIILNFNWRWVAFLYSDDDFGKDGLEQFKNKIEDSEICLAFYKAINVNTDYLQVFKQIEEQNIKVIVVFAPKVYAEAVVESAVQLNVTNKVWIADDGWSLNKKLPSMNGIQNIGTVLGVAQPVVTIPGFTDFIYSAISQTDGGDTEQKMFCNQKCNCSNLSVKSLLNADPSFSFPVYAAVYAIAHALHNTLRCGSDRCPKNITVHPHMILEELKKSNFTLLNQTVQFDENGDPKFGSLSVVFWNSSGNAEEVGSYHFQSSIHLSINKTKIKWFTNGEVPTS
T1 sequence (A0A173M0G2 entry or part of it): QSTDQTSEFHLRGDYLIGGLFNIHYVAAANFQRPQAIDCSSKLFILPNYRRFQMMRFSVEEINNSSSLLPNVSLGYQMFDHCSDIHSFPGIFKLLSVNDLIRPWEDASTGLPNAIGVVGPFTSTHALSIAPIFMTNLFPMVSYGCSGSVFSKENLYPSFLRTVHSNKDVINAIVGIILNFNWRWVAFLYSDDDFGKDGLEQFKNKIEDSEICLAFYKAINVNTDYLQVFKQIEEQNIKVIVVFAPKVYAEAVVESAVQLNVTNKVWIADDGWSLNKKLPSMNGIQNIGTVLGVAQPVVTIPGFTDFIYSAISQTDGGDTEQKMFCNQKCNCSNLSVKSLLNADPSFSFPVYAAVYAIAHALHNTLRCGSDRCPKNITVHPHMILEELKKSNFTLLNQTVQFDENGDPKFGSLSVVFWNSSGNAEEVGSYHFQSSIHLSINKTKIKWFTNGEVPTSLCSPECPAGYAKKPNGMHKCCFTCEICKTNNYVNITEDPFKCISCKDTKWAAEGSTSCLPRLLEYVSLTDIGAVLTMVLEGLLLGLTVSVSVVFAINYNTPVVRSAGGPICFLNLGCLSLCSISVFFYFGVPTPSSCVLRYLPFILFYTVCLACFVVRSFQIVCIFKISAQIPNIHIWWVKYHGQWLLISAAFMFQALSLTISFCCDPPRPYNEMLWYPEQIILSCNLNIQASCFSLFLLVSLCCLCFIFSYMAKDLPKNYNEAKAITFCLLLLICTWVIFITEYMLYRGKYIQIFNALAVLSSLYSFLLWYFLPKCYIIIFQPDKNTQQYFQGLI
T1 sequence (A0A173M094 entry or part of it): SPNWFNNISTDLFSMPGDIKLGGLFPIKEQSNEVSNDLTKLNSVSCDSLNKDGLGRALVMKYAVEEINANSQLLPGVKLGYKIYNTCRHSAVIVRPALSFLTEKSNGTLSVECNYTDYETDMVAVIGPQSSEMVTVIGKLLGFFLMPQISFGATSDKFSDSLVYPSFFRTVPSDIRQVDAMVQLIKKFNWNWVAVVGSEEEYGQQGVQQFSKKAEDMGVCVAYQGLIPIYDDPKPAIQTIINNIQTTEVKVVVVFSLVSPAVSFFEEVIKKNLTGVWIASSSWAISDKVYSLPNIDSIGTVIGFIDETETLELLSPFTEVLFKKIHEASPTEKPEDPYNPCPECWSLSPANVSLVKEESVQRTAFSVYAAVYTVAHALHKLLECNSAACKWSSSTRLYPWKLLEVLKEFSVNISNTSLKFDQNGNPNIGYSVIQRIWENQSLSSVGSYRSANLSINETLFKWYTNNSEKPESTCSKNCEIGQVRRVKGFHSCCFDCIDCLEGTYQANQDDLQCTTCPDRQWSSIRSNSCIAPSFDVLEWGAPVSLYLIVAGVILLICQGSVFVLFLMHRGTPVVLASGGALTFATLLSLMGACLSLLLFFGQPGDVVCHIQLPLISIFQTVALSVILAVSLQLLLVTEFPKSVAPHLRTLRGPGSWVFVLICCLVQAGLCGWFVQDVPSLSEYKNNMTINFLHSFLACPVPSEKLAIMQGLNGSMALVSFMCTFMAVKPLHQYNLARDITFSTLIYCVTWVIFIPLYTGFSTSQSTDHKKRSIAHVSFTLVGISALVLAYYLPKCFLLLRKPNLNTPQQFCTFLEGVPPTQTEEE

SMILES	ΔTm (medaka T1r2a/T1r3LBD; 0.1 mM amino acid)	ΔTm (medaka T1r2a/T1r3LBD; 1 mM amino acid)	ΔTm (medaka T1r2a/T1r3LBD; 10 mM amino acid)	potency estimated from few doses (medaka T1r2a/T1r3LBD; [5])	pKd-app (medaka T1r2a/T1r3LBD; [6])	ΔRFU [2, 7]	ΔRFU ([2]; 10 mM amino acid, n = 6)	EC50 [2, 8]	EC50 [2, 9]	pEC50-est [2, 11]	potency estimated from few doses (medaka T1r2a/T1r3LBD; [16])	Kd (medaka T1r2a/T1r3LBD; [4])	EC50 (T1r2a/T1r3LBD)	Hydropathy Index [3]	pI [3]	logKd_CW (polarity) [3]	Es'c (steric effects) [3]	πα (hydrophobicity) [3]	HP (hydration potential) [3]	further results
NC(=O)CCC(N)C(=O)O (stereo in doubt) [D-glutamine]	–	–	–	–	–	–	–	–	–	–	–	–	–	–	–	–	–	–	–	full-length receptor response (in words) [1]: significantly weak responses
C[C@H](N)C(=O)O [L-Ala, L-alanine]	0.41 ± 0.09 K	6.92 ± 0.03 K	11.1 ± 0.02 K	–	–	64.7 ± 12.8	90.8 ± 9.46	3060 µM	1490 µM	–	–	54.1 ± 24.5 µM	141 ± 37 µM	1.8	6	-1.33	-0.2	0.28	1.94	effect on thermal stability / Tm shift of T1r2a/T1r3LBD (in words) (medaka T1r2a/T1r3LBD): exhibited large Tm shifts; Kd-app fold difference compared with FRET EC50 (medaka T1r2a/T1r3LBD; Kd-app from 0.1 mM): 4.71 fold; Kd-app fold difference compared with FRET EC50 (medaka T1r2a/T1r3LBD; Kd-app from 1 mM): 0.782 fold; Kd-app fold difference compared with FRET EC50 (medaka T1r2a/T1r3LBD; Kd-app from 10 mM): 1.91 fold; potency estimated from few doses (medaka T1r2a/T1r3LBD; [12]): 664 µM; potency estimated from few doses (medaka T1r2a/T1r3LBD; [13]): 110 µM; potency estimated from few doses (medaka T1r2a/T1r3LBD; [14]): 269 µM; EC50 ([2]; from response at 5 mM, log 1/EC50-est, read-out: pEC50-est (converted)): 3090 µM; EC50 [2, 15]: 1480 µM
N=C(N)NCCC[C@H](N)C(=O)O [L-Arg, arginine]	0.45 ± 0.17 K	6.98 ± 0.08 K	11.0 ± 0.05 K	–	–	68.2 ± 5.39	63.4 ± 9.85	–	–	–	–	–	190 ± 35 µM	-4.5	10.76	4.32	-0.82	-0.42	-19.92	Kd (medaka T1r2a/T1r3LBD; DSF Kd-app, Tm at 8 or 9 ligand concentrations fitted to Eq 1 (Schellman), fitted parameter ± s.e.): 131 ± 66 µM; effect on thermal stability / Tm shift of T1r2a/T1r3LBD (in words) (medaka T1r2a/T1r3LBD): thermally stabilized the protein; Kd-app fold difference compared with FRET EC50 (medaka T1r2a/T1r3LBD; Kd-app from 0.1 mM): 3.20 fold; Kd-app fold difference compared with FRET EC50 (medaka T1r2a/T1r3LBD; Kd-app from 1 mM): 0.568 fold; Kd-app fold difference compared with FRET EC50 (medaka T1r2a/T1r3LBD; Kd-app from 10 mM): 1.44 fold; Kd (medaka T1r2a/T1r3LBD; pKd-app, log 1/Kd-app, converted from S1 Table values (10 mM; L-Ala 1 mM, L-Gln 0.1 mM)): 275 µM; potency estimated from few doses (medaka T1r2a/T1r3LBD; [12]): 608 µM; potency estimated from few doses (medaka T1r2a/T1r3LBD; [13]): 108 µM; potency estimated from few doses (medaka T1r2a/T1r3LBD; [14]): 274 µM; EC50 ([2]; EC50-est, estimated from ΔRFU at 5 mM by Hill equation, ΔRFUmax 104.3): 2650 µM; EC50 ([2]; EC50-est, estimated from ΔRFU at 10 mM by Hill equation, ΔRFUmax 104.3): 6440 µM; EC50 ([2]; pEC50-est, from response at 5 mM, log 1/EC50-est): 2630 µM; EC50 ([2]; pEC50-est, from response at 10 mM, log 1/EC50-est): 6460 µM
N[C@@H](CCC(=O)O)C(=O)O [L-Glu, glutamate]	0.55 ± 0.26 K	0.48 ± 0.14 K	7.06 ± 0.08 K	1050 µM	2.98	3.73 ± 1.63	30.3 ± 1.85	–	24400 µM	1.61	488 µM	422 ± 211 µM	1070 ± 382 µM	–	3.22	2.25	-0.82	0.02	-10.2	potency estimated from few doses (medaka T1r2a/T1r3LBD; [17]): 5700 µM

Continued, in another order:

ΔTm (medaka T1r2a/T1r3LBD; 0.1 mM amino acid)	ΔTm (medaka T1r2a/T1r3LBD; 1 mM amino acid)	ΔTm (medaka T1r2a/T1r3LBD; 10 mM amino acid)	potency estimated from few doses (medaka T1r2a/T1r3LBD; [5])	pKd-app (medaka T1r2a/T1r3LBD; [6])	ΔRFU [2, 7]	ΔRFU ([2]; 10 mM amino acid, n = 6)	EC50 [2, 8]	EC50 [2, 9]	pEC50-est [2, 11]	potency estimated from few doses (medaka T1r2a/T1r3LBD; [16])	SMILES	Kd (medaka T1r2a/T1r3LBD; [4])	EC50 (T1r2a/T1r3LBD)	Hydropathy Index [3]	pI [3]	logKd_CW (polarity) [3]	Es'c (steric effects) [3]	πα (hydrophobicity) [3]	HP (hydration potential) [3]	further results
-0.04 ± 0.12 K	-0.15 ± 0.07 K	5.08 ± 0.06 K	2220 µM	2.65	13.4 ± 3.45	46.2 ± 9.00	33800 µM	12600 µM	1.90	–	NCC(=O)O [Gly, glycine]	3570 ± 4090 µM	6180 ± 3320 µM	–	–	–	–	–	–	pEC50-est [2, 10]: 1.47
6.26 ± 0.06 K	10.80 ± 0.05 K	13.6 ± 0.02 K	119 µM	–	104.3 ± 4.24	81.0 ± 4.64	–	2880 µM	–	14.1 µM	NC(=O)CC[C@H](N)C(=O)O [L-Gln, L-glutamine]	30.9 ± 5.8 µM	11.5 ± 3.4 µM	–	–	–	–	–	–	increase of Tm (ΔTm), second Tm (medaka T1r2a/T1r3LBD; 300 μM ligand): 8.7 ± 0.1 °C; potency estimated from few doses (medaka T1r2a/T1r3LBD; [17]): 29.2 µM; Kd (medaka T1r2a/T1r3LBD; log 1/Kd-app, converted from S1 Table values (10 mM; L-Ala 1 mM, L-Gln 0.1 mM), read-out: pKd-app (converted)): 14.1 µM; ΔRFU ([2]; 5 mM amino acid, n = 6 (n = 12 for L-glutamine), listed as L-glutamine): 104.3; EC50 [2, 15]: 2880 µM
-0.14 ± 0.03 K	-1.20 ± 0.03 K	7.32 ± 0.06 K	956 µM	3.02	11.5 ± 2.07	33.5 ± 7.59	40500 µM	21100 µM	1.67	–	N[C@@H](CO)C(=O)O [L-Ser]	–	–	-0.8	5.68	2.49	-0.48	-0.19	-5.06	pEC50-est [2, 10]: 1.39
-0.06 ± 0.09 K	-1.27 ± 0.08 K	6.99 ± 0.09 K	1080 µM	2.97	3.20 ± 1.51	18.2 ± 6.01	–	47400 µM	1.32	–	C[C@@H](O)[C@H](N)C(=O)O [L-Thr]	–	–	-0.7	5.6	1.89	-0.73	0.07	-4.88	–
0.11 ± 0.24 K	-0.77 ± 0.14 K	7.85 ± 0.03 K	793 µM	3.10	3.89 ± 1.23	32.4 ± 7.56	–	22200 µM	1.65	2630 µM	CC(C)[C@H](N)C(=O)O [L-Val]	–	–	4.2	5.96	-2.97	-1.29	1	1.99	–
